{"source": "patent US10550143B2", "about": "“C,O-spiro aryl glycoside compounds, preparation therefor and use thereof” (SHANGHAI INSTITUTE OF MATERIA MEDICA, CHINESE ACADEMY OF …, priority 2015, dated 2020)", "key": {"SD rats": {"system": "SD rats", "assay": "Acute administration of A28 at multiple doses, glucose tolerance of SD rats", "assay_type": "in vivo, rat", "conditions": "for AUC0-2 h / Average hypoglycemic rate % (0-2 h) / Blood glucose level 15 min / Blood glucose level 30 min / Blood glucose level 60 min / Blood glucose level 90 min / Blood glucose level 120 min / Blood glucose level 0: SD rats OGTT; for Blood glucose level 0: before sugar", "procedure": "(1) 80 SD rats were selected and starved overnight, took water freely, then randomly divided into 10 groups according to body weight and random blood glucose, 8 rats in each group. […] 1 h after oral gavage, 3 g/kg of glucose was orally administered to each group except blank control group, and the blood glucose level was monitored before the sugar administration, and at 15, 30, 60, 90 and 120 minutes after the sugar administration.\nAverage hypoglycemic rate %=(AUC0-120 min of solvent control group−AUC0-120 min of administration group)/(AUC0-120 min of solvent control group−AUC0-120 min of blank control group)*100%"}, "db/db mice": {"system": "db/db mice", "assay": "Chronic administration, glucose-stimulated insulin release in db/db mice", "assay_type": "in vivo, mouse", "conditions": "for Insulin AUC / Insulin (ng/ml) 0 min / Insulin (ng/ml) 15 min / Insulin (ng/ml) 30 min / Insulin (ng/ml) 60 min / Insulin (ng/ml) pre: glucose-stimulated insulin release, chronic administration", "procedure": "Oral gavage administrated, daily dose volume was 10 mL/kg, administered once daily. Administration time was 9: 00-10:00 daily, and the administration period was 5 weeks.\nThe fourth week after administration, the mice were starved for 6 hours after morning administration and were orally administrated with glucose (1.5 g/kg), and blood was collected from the tail (10 μL EDTA+20 μL tail blood). Centrifuged and the supernatant was taken, stored at −20° C. for insulin test."}}}
{"smiles": "CCc1ccc(Cc2cc3c(cc2Cl)CO[C@]32O[C@H](C)[C@@H](O)[C@H](O)[C@H]2O)s1", "note": "[Example A28, (1S,3′R,4′S,5′S,6′R)-6′-methyl-6-((5-ethylthienyl)-2-methyl)-5-chloro-3′,4′,5′,6′-tetrahydro-3H-spiro[isobenzofuran-1,2′-pyran]-3′,4′,5′-triol]", "values": [{"measurement": "AUC0-2 h", "setting": "SD rats; oral 0.3 mg/kg", "result": "19.1 ± 1.77", "unit": "mmol·h/L"}, {"measurement": "Average hypoglycemic rate % (0-2 h)", "setting": "SD rats; oral 0.3 mg/kg", "result": 10.3, "unit": "%"}, {"measurement": "Blood glucose level 15 min", "setting": "SD rats; oral 0.3 mg/kg", "result": "7.6 ± 0.8", "unit": "mmol/L"}, {"measurement": "Blood glucose level 30 min", "setting": "SD rats; oral 0.3 mg/kg", "result": "10.1 ± 1.6", "unit": "mmol/L"}, {"measurement": "Blood glucose level 60 min", "setting": "SD rats; oral 0.3 mg/kg", "result": "11.1 ± 1.3", "unit": "mmol/L"}, {"measurement": "Blood glucose level 90 min", "setting": "SD rats; oral 0.3 mg/kg", "result": "10.5 ± 0.8", "unit": "mmol/L"}, {"measurement": "Blood glucose level 120 min", "setting": "SD rats; oral 0.3 mg/kg", "result": "8.1 ± 1.3", "unit": "mmol/L"}, {"measurement": "Blood glucose level 0", "setting": "SD rats; oral 0.3 mg/kg", "result": "5.0 ± 0.7", "unit": "mmol/L"}, {"measurement": "AUC0-2 h", "setting": "SD rats; oral 1 mg/kg", "result": "15.6 ± 0.9", "unit": "mmol·h/L"}, {"measurement": "Average hypoglycemic rate % (0-2 h)", "setting": "SD rats; oral 1 mg/kg", "result": 45.0, "unit": "%"}, {"measurement": "Blood glucose level 15 min", "setting": "SD rats; oral 1 mg/kg", "result": "5.4 ± 0.9", "unit": "mmol/L"}, {"measurement": "Blood glucose level 30 min", "setting": "SD rats; oral 1 mg/kg", "result": "6.5 ± 1.1", "unit": "mmol/L"}, {"measurement": "Blood glucose level 60 min", "setting": "SD rats; oral 1 mg/kg", "result": "8.4 ± 0.6", "unit": "mmol/L"}, {"measurement": "Blood glucose level 90 min", "setting": "SD rats; oral 1 mg/kg", "result": "9.6 ± 1.2", "unit": "mmol/L"}, {"measurement": "Blood glucose level 120 min", "setting": "SD rats; oral 1 mg/kg", "result": "9.0 ± 1.3", "unit": "mmol/L"}, {"measurement": "Blood glucose level 0", "setting": "SD rats; oral 1 mg/kg", "result": "4.4 ± 0.3", "unit": "mmol/L"}, {"measurement": "AUC0-2 h", "setting": "SD rats; oral 3 mg/kg", "result": "11.6 ± 0.9", "unit": "mmol·h/L"}, {"measurement": "Average hypoglycemic rate % (0-2 h)", "setting": "SD rats; oral 3 mg/kg", "result": 83.7, "unit": "%"}, {"measurement": "Blood glucose level 15 min", "setting": "SD rats; oral 3 mg/kg", "result": "3.6 ± 0.5", "unit": "mmol/L"}, {"measurement": "Blood glucose level 30 min", "setting": "SD rats; oral 3 mg/kg", "result": "4.3 ± 0.3", "unit": "mmol/L"}, {"measurement": "Blood glucose level 60 min", "setting": "SD rats; oral 3 mg/kg", "result": "5.6 ± 0.7", "unit": "mmol/L"}, {"measurement": "Blood glucose level 90 min", "setting": "SD rats; oral 3 mg/kg", "result": "7.4 ± 0.6", "unit": "mmol/L"}, {"measurement": "Blood glucose level 120 min", "setting": "SD rats; oral 3 mg/kg", "result": "8.4 ± 1.6", "unit": "mmol/L"}, {"measurement": "Blood glucose level 0", "setting": "SD rats; oral 3 mg/kg", "result": "3.7 ± 0.4", "unit": "mmol/L"}, {"measurement": "AUC0-2 h", "setting": "SD rats; oral 10 mg/kg", "result": "7.6 ± 0.9", "unit": "mmol·h/L"}, {"measurement": "Average hypoglycemic rate % (0-2 h)", "setting": "SD rats; oral 10 mg/kg", "result": 122.4, "unit": "%"}, {"measurement": "Blood glucose level 15 min", "setting": "SD rats; oral 10 mg/kg", "result": "3.0 ± 0.4", "unit": "mmol/L"}, {"measurement": "Blood glucose level 30 min", "setting": "SD rats; oral 10 mg/kg", "result": "3.4 ± 0.4", "unit": "mmol/L"}, {"measurement": "Blood glucose level 60 min", "setting": "SD rats; oral 10 mg/kg", "result": "4.3 ± 1.8", "unit": "mmol/L"}, {"measurement": "Blood glucose level 90 min", "setting": "SD rats; oral 10 mg/kg", "result": "4.2 ± 0.4", "unit": "mmol/L"}, {"measurement": "Blood glucose level 120 min", "setting": "SD rats; oral 10 mg/kg", "result": "3.7 ± 0.9", "unit": "mmol/L"}, {"measurement": "Blood glucose level 0", "setting": "SD rats; oral 10 mg/kg", "result": "3.1 ± 0.4", "unit": "mmol/L"}, {"measurement": "2 h hypoglycemic effect compared with Dapagliflozin", "setting": "SD rats; SD rats, single oral dose", "result": "equivalent 2 h hypoglycemic effect to positive Dapagliflozin"}, {"measurement": "glucose-stimulated insulin release", "setting": "db/db mice; four weeks chronic administration, 0.3 mg/kg and 1 mg/kg", "result": "significantly improved glucose-stimulated insulin release in db/db mice in a dose-dependent manner"}, {"measurement": "Insulin AUC", "setting": "db/db mice; dose 0.3 mg/kg", "result": "43.85 ± 5.69"}, {"measurement": "Insulin (ng/ml) 0 min", "setting": "db/db mice; dose 0.3 mg/kg", "result": "21.58 ± 2.48", "unit": "ng/mL"}, {"measurement": "Insulin (ng/ml) 15 min", "setting": "db/db mice; dose 0.3 mg/kg", "result": "51.67 ± 7.86", "unit": "ng/mL"}, {"measurement": "Insulin (ng/ml) 30 min", "setting": "db/db mice; dose 0.3 mg/kg", "result": "46.22 ± 8.10", "unit": "ng/mL"}, {"measurement": "Insulin (ng/ml) 60 min", "setting": "db/db mice; dose 0.3 mg/kg", "result": "43.61 ± 4.85", "unit": "ng/mL"}, {"measurement": "Insulin (ng/ml) pre", "setting": "db/db mice; dose 0.3 mg/kg", "result": "7.68 ± 0.79", "unit": "ng/mL"}, {"measurement": "Insulin AUC", "setting": "db/db mice; dose 1 mg/kg", "result": "35.92 ± 5.00"}, {"measurement": "Insulin (ng/ml) 0 min", "setting": "db/db mice; dose 1 mg/kg", "result": "17.47 ± 2.20", "unit": "ng/mL"}, {"measurement": "Insulin (ng/ml) 15 min", "setting": "db/db mice; dose 1 mg/kg", "result": "41.94 ± 8.42", "unit": "ng/mL"}, {"measurement": "Insulin (ng/ml) 30 min", "setting": "db/db mice; dose 1 mg/kg", "result": "40.07 ± 7.01", "unit": "ng/mL"}, {"measurement": "Insulin (ng/ml) 60 min", "setting": "db/db mice; dose 1 mg/kg", "result": "32.89 ± 3.69", "unit": "ng/mL"}, {"measurement": "Insulin (ng/ml) pre", "setting": "db/db mice; dose 1 mg/kg", "result": "7.86 ± 0.94", "unit": "ng/mL"}, {"measurement": "Insulin AUC", "setting": "db/db mice; dose 3 mg/kg", "result": "32.49 ± 5.92"}, {"measurement": "Insulin (ng/ml) 0 min", "setting": "db/db mice; dose 3 mg/kg", "result": "17.57 ± 4.54", "unit": "ng/mL"}, {"measurement": "Insulin (ng/ml) 15 min", "setting": "db/db mice; dose 3 mg/kg", "result": "38.42 ± 8.58", "unit": "ng/mL"}, {"measurement": "Insulin (ng/ml) 30 min", "setting": "db/db mice; dose 3 mg/kg", "result": "36.06 ± 8.77", "unit": "ng/mL"}, {"measurement": "Insulin (ng/ml) 60 min", "setting": "db/db mice; dose 3 mg/kg", "result": "28.68 ± 8.81", "unit": "ng/mL"}, {"measurement": "Insulin (ng/ml) pre", "setting": "db/db mice; dose 3 mg/kg", "result": "7.92 ± 1.60", "unit": "ng/mL"}, {"measurement": "Insulin AUC", "setting": "db/db mice; dose 10 mg/kg", "result": "17.20 ± 1.59"}, {"measurement": "Insulin (ng/ml) 0 min", "setting": "db/db mice; dose 10 mg/kg", "result": "9.02 ± 0.59", "unit": "ng/mL"}, {"measurement": "Insulin (ng/ml) 15 min", "setting": "db/db mice; dose 10 mg/kg", "result": "16.70 ± 2.42", "unit": "ng/mL"}]}
